Measurements from patent US10758542B2, “Substituted pyrazolo[l,5-a]pyrimidine compounds as Trk kinase inhibitors” (Array BioPharma Inc., priority 2009, dated 2020).

Molecular target: Human Jak2 kinase domain (Homo sapiens (Human), UniProt O60674)
Experiment: Jak2 inhibition assay (Omnia kinase)
Type: biochemical
Settings: read-out: Jak2 Enzyme (% inhibition at 1000 nM), Table 1; at 1000 nM test compound
Source text: The assays described in Examples C, D, E and F for the determination of JAK1, JAK2, JAK3 and Tyk2 kinase activity, respectively, utilized the Omnia® Kinase fluorescence peptide substrate-based technology (Invitrogen). The specific components of the assay mixture are described in Examples C, D and E. […] Two-μL aliquots of these were transferred to a fresh plate for a ten-fold intermediate dilution with assay buffer. […] Human Jak2 kinase domain comprising amino acids 808-1132 was purchased from Invitrogen Corporation, Carlsbad, Calif.

Human Jak2 kinase domain, sequence (O60674 808-1132): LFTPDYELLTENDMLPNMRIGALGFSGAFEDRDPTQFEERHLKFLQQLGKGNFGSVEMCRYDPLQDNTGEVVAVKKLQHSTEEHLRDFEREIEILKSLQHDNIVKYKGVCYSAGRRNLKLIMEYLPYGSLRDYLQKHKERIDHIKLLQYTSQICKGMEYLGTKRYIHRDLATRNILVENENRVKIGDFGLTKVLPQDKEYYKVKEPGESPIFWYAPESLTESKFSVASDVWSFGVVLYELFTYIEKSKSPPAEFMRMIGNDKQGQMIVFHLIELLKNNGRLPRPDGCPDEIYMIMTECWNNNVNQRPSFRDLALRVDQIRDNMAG

inhibition at 1 µM | Compound
82.5% | CC1(O)CCC(NC(=O)c2cnn3ccc(N4CCC[C@@H]4c4cc(F)ccc4F)nc23)CC1 (stereo partly drawn) [Example 51, 5-((R)-2-(2,5-difluorophenyl)pyrrolidin-1-yl)-N-(4-hydroxy-4-methylcyclohexyl)pyrazolo[1,5-a]pyrimidine-3-carboxamide]
25.2% | C[C@@H](NC(=O)c1cnn2ccc(N3CCC[C@@H]3c3cncc(F)c3)nc12)C(F)(F)F [Example 129, 5-((R)-2-(5-fluoropyridin-3-yl)pyrrolidin-1-yl)-N-((R)-1,1,1-trifluoropropan-2-yl)pyrazolo[1,5-a]pyrimidine-3-carboxamide]
14.4% | O=C(N[C@@H]1CCC[C@H]1O)c1cnn2ccc(N3CCC[C@@H]3c3cncc(F)c3)nc12 [Example 133, 5-((R)-2-(5-fluoropyridin-3-yl)pyrrolidin-1-yl)-N-((1R,2R)-2-hydroxycyclopentyl)pyrazolo[1,5-a]pyrimidine-3-carboxamide]
12.5% | CCc1ncc(F)cc1[C@H]1CCCN1c1ccn2ncc(C(=O)N[C@H]3CC[C@H](O)C3)c2n1 [Example 200, 5-((R)-2-(2-ethyl-5-fluoropyridin-3-yl)pyrrolidin-1-yl)-N-((1S,3S)-3-hydroxycyclopentyl)pyrazolo [1,5-a]pyrimidine-3-carboxamide]
